Calls of active or inactive are those of the source. The rule behind the calls is not given here.
What was measured:
[1] = target: Glycogen synthase kinase-3 beta (Homo sapiens, UniProt P49841); test: Inhibition of recombinant human GSK-3beta using YRRAAVPPSPSLSRHSSPHQ(pS)EDEE as substrate preincubated for 15 mins followed by substrate addition and measured after 60 mins by Kinase-Glo luminescent kinase assay
[2] = system: PC-12; test: Neuroprotective activity against H2O2-induced cytotoxicity in rat PC12 cells assessed as increase in cell viability at 10 uM preincubated for 12 hrs followed by replacement with fresh media and H2O2 stimulation for 12 hrs by MTT assay; type: functional, cell-based

Glycogen synthase kinase-3 beta, sequence (P49841 whole entry): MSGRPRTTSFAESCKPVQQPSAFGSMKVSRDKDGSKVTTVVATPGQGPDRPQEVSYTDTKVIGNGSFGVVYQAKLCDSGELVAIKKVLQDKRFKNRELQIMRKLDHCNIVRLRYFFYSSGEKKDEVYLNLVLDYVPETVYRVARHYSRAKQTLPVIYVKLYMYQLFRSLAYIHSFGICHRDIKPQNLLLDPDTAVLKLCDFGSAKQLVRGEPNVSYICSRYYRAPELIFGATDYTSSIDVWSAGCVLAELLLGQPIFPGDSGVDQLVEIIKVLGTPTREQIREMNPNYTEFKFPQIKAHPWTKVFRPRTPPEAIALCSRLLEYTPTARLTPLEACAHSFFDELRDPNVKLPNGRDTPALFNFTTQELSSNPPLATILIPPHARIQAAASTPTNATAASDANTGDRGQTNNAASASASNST

SMILES	IC50 [1] [nM]	Activity [2]
COc1ccc(-c2ocnc2C(=O)NCCCn2cc(CNC(=O)c3cc(C(C)(C)C)c(O)c(C(C)(C)C)c3)nn2)cc1I	0.31	
COc1c(F)cc(-c2ocnc2C(=O)NCCCNC(=O)c2cc(C(C)(C)C)c(O)c(C(C)(C)C)c2)cc1F	0.96	
COc1ccc(-c2ocnc2C(=O)NCCCNC(=O)/C=C/c2cc(C(C)(C)C)c(O)c(C(C)(C)C)c2)cc1Cl	0.41	
COc1ccc(-c2ocnc2C(=O)NCCCNC(=O)c2cc(C(C)(C)C)c(O)c(C(C)(C)C)c2)cc1Cl	> 1	
COc1ccc(-c2ocnc2C(=O)NCCCc2ccc(NC(=O)c3cc(C(C)(C)C)c(O)c(C(C)(C)C)c3)cc2)cc1Cl	0.92	Active
COc1ccc(-c2ocnc2C(=O)NCCCNC(=O)CCc2cc(C(C)(C)C)c(O)c(C(C)(C)C)c2)cc1Cl	> 1	
COc1c(F)cc(-c2ocnc2C(=O)NCCCNC(=O)CCc2cc(C(C)(C)C)c(O)c(C(C)(C)C)c2)cc1F	> 1	
COc1ccc(-c2ocnc2C(=O)NCCCc2ccc(NC(=O)CCc3cc(C(C)(C)C)c(O)c(C(C)(C)C)c3)cc2)cc1Cl	> 1	
COC(=O)[C@@]12OC[C@]34[C@H]([C@@H](O)[C@@H]1O)[C@@]1(C)CC(=O)C(O)=C(C)[C@@H]1C[C@H]3OC(=O)[C@H](OC(=O)C=C(C)C)[C@@H]24		inactive
COc1ccc(-c2ocnc2C(=O)NCCCNC(=O)c2cc(C(C)(C)C)c(O)c(C(C)(C)C)c2)cc1F	> 1	
COc1ccc(-c2ocnc2C(=O)NCCCn2cc(CNC(=O)CCc3cc(C(C)(C)C)c(O)c(C(C)(C)C)c3)nn2)cc1I	0.81	
COc1ccc(-c2ocnc2C(=O)NCCCCNC(=O)CCc2cc(C(C)(C)C)c(O)c(C(C)(C)C)c2)cc1Cl	0.84	Active
COc1ccc(-c2ocnc2C(=O)NCCCNC(=O)c2cc(C(C)(C)C)c(O)c(C(C)(C)C)c2)cc1I	0.48	
COc1ccc(-c2ocnc2C(=O)NCCCn2cc(CNC(=O)/C=C/c3cc(C(C)(C)C)c(O)c(C(C)(C)C)c3)nn2)cc1I	0.33	
COc1c(F)cc(-c2ocnc2C(=O)NCCCc2ccc(NC(=O)/C=C/c3cc(C(C)(C)C)c(O)c(C(C)(C)C)c3)cc2)cc1F	0.95	Active
COc1ccc(-c2ocnc2C(=O)NCCCn2cc(CNC(=O)CCc3cc(C(C)(C)C)c(O)c(C(C)(C)C)c3)nn2)cc1Cl	0.27	
COc1ccc(-c2ocnc2C(=O)NCCCCNC(=O)c2cc(C(C)(C)C)c(O)c(C(C)(C)C)c2)cc1F	0.62	Active
COc1ccc(-c2ocnc2C(=O)NCCCNC(=O)CCc2cc(C(C)(C)C)c(O)c(C(C)(C)C)c2)cc1F	> 1	
COc1ccc(-c2ocnc2C(=O)NCCCn2cc(CNC(=O)c3cc(C(C)(C)C)c(O)c(C(C)(C)C)c3)nn2)cc1Cl	> 1	
COc1ccc(-c2ocnc2C(=O)NCCCNC(=O)/C=C/c2cc(C(C)(C)C)c(O)c(C(C)(C)C)c2)cc1I	> 1	
COc1ccc(-c2ocnc2C(=O)NCCCCNC(=O)c2cc(C(C)(C)C)c(O)c(C(C)(C)C)c2)cc1Cl	0.81	Active
COc1ccc(-c2ocnc2C(=O)NCCCc2ccc(NC(=O)/C=C/c3cc(C(C)(C)C)c(O)c(C(C)(C)C)c3)cc2)cc1F	> 1	
COc1ccc(-c2ocnc2C(=O)NCCCNC(=O)CCc2cc(C(C)(C)C)c(O)c(C(C)(C)C)c2)cc1I	> 1	
COc1ccc(-c2ocnc2C(=O)NCCCn2cc(CNC(=O)/C=C/c3cc(C(C)(C)C)c(O)c(C(C)(C)C)c3)nn2)cc1Cl	0.76	
COc1ccc(-c2ocnc2C(=O)NCCCCNC(=O)CCc2cc(C(C)(C)C)c(O)c(C(C)(C)C)c2)cc1F	0.78	Active

Source: ChEMBL document CHEMBL5370539, “Oxazole-4-carboxamide/butylated hydroxytoluene hybrids with GSK-3β inhibitory and neuroprotective activities against Alzheimer's disease” (Eur J Med Chem, 2023)
